Results on 1 molecule are retold here after patent US20040259948A1, “Reciprocal regulation of inflammation and lipid metabolism by liver X receptors” (priority 2003, published 2004).

This assay addresses T1, LXRα/RXRα (Homo sapiens, UniProt Q13133).
T1 construct: expressed in transfected cells; host or cells: RAW 264.7
T1 sequence (Q13133 1-447): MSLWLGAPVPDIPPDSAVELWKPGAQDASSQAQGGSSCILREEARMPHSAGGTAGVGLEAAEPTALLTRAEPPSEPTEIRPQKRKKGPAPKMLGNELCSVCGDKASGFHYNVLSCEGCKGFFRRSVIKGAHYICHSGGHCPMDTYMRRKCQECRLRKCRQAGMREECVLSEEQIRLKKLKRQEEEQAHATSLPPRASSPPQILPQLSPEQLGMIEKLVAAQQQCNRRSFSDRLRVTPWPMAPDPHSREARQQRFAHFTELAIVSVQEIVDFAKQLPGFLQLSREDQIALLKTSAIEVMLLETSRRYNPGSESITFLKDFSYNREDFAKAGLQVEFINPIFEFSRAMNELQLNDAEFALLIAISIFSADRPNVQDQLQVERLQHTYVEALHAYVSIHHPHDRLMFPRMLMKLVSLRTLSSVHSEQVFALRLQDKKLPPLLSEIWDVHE
T1 sequence (P19793 1-462 partner): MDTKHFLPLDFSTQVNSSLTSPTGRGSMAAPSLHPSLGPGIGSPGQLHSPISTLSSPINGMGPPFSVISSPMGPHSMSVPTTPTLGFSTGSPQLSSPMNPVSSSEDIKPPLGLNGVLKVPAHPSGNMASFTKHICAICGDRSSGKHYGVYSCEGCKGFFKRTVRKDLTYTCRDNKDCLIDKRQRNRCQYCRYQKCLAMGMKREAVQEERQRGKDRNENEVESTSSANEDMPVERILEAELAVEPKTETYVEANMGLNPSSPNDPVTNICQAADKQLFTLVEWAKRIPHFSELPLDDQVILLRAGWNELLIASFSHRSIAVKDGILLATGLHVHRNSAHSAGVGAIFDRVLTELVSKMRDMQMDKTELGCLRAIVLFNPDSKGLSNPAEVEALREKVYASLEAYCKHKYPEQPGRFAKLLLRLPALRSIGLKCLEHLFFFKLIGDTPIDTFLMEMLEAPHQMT
Kind of assay: Luciferase reporter transfection in RAW 264.7 cells, LXRα/RXRα. It counts as cell-based. Particulars: 2 μM. As to the method:
We next investigated the mechanism by which LXR inhibits iNOS and COX-2 expression. […] RAW 264.7 cells were transfected with expression vectors for either LXRα/RXRα or LXRβ/RXRα along with luciferase reporter constructs. The LXR agonist inhibited expression of both iNOS and COX-2 gene promoters in a receptor-dependent fashion (FIG. 4 A and B). […] E, A dominant-negative IKK expression vector (IKK DN) blocks LXR-dependent repression of the COX-2 promoter. Transfected cells were treated with DMSO (ctrl), GW3965 (GW), LPS, or GW3965 and LPS. […] RAW 264.7 cells were transiently transfected with expression vectors for LXRα/RXRα, LXRβ/RXRα or dominant-negative I kappa B kinase (IKK) along with iNOS (A), COX-2 (B, E, F), NF-κB (C), AP-1 (D) or COX-2/NF-κB mutant (F) luciferase reporters. […] As activation of iNOS and COX-2 gene promoters by LPS is known to depend on interactions between AP-1 and NF-κB transcription factors, the effect of LXR on minimal promoters containing binding sites for these factors was evaluated. […] Moreover, the inhibitory effect of LXR on the COX-2 promoter was lost when NF-κB activity was blocked by transfection of a dominant-negative IKK or when binding sites for NF-κB were mutated (FIGS. 4E and F). These observations indicate that inhibition of inflammatory gene expression by LXR ligands involves antagonism of NF-κB signaling.
Reagents and plasmids. […] Oxysterols, LDL and ox-LDL were from Sigma and Intracell, respectively. LPS from Salmonella typhimurium was from Sigma. Expression plasmids for LXRα, LXRβ and IKK-DN (Castrillo, A. et al. 2001 J Biol Chem 276:15854-15860; Laffitte, B. A. et al. 2001 Mol Cell Biol 21:7558-7568), and reporter plasmids for NOS-2, (NFκB)3-LUC, (AP-1)4-LUC and COX-2 have been described (Callejas, N. A. et al. 2000 Gastroenterology 119:493-501).
Cell culture and transfections. Thioglycolate-elicited peritoneal macrophages were cultured in RPMI containing 10% fetal bovine serum (FBS). RAW 264.7 cells were cultured in DMEM containing 10% FBS. For ligand treatments, cells were in cultured medium supplemented with 5% lipoprotein-deficient serum (LPDS) and ligands for 18 h before stimulation. Bacterial infection in vitro was performed as described (Chen, L. M. et al. 1996 Mol Microbiol 21:1101-1115). Transient transfections of RAW 264.7 cells were performed in triplicate in 48-well plates using Superfect reagent (Life Technologies). After transfection, cells were incubated in medium containing 10% LPDS and the indicated ligands for 18 h before stimulation with LPS for an additional 18 h. Luciferase activity was normalized to β-galactosidase activity. NO production was determined spectrophotometrically (Castrillo, A. et al. 2000 Mol Cell Biol 20:1692-1698).
In general terms: A reporter such as luciferase makes a cellular process visible.

As for `O=C(O)Cc1cccc(OCCCN(Cc2cccc(C(F)(F)F)c2Cl)CC(c2ccccc2)c2ccccc2)c1` [GW3965], the “induction of the COX-2 promoter by LPS (luciferase reporter)” value is listed as “inhibits induction” and the “induction of the iNOS promoter by LPS (luciferase reporter)” value is “inhibits induction”. Further, the “luciferase reporter containing multiple NF-κB binding sites” value (LPS) is recorded as “inhibits expression”. The “COX-2 luciferase reporter lacking the NF-κB binding site” value (LPS, COX-2/NF-κB mutant) is on record as “fails to inhibit”. Also, the “inhibitory effect on the COX-2 promoter with dominant-negative IKK” value (LPS, IKK-DN co-transfected, LXR vector not specified) is given as “lost”.
